Measurements from the NIST ThermoML archive (doi:10.1016/j.jct.2017.03.006).

Assay: xn = mol fraction of the nth substance listed
Settings: Liquid; for mass density: 293.15 K, Vibrating tube method; for viscosity: Concentric cylinders viscometry

Cc1ccc(C)c(C)c1 [1,2,4-trimethylbenzene] + CCCCO
mass density [kg/m3]
Settings | x2 = 0 | x2 = 0.1005 | x2 = 0.2261 | x2 = 0.2999 | x2 = 0.3966 | x2 = 0.5289 | x2 = 0.6367 | x2 = 0.7249 | x2 = 0.7977 | x2 = 0.9131
100 kPa | – | – | – | 859.9 | 854.5 | 846.5 | 839.4 | 833.1 | 827.5 | 817.8
1000 kPa | 875.7 | 870.8 | 864.3 | 860.4 | 855 | 847.1 | 840 | 833.7 | 828.1 | 818.4
5000 kPa | 878.2 | 873.4 | 867 | 863.1 | 857.8 | 849.8 | 842.8 | 836.5 | 831 | 821.3
10000 kPa | 881.4 | 876.6 | 870.2 | 866.4 | 861.1 | 853.1 | 846.1 | 839.9 | 834.3 | 824.7
20000 kPa | 887.3 | 882.6 | 876.2 | 872.5 | 867.2 | 859.4 | 852.3 | 846.2 | 840.6 | 831.1
30000 kPa | 892.9 | 888.3 | 881.9 | 878.2 | 873 | 865.2 | 858.2 | 852.1 | 846.5 | 837.1
40000 kPa | 898.2 | 893.7 | 887.4 | 883.6 | 878.5 | 870.7 | 863.7 | 857.6 | 852.1 | 842.7
50000 kPa | 903.2 | 898.7 | 892.4 | 888.8 | 883.6 | 875.8 | 868.9 | 862.8 | 857.3 | 847.9
60000 kPa | 908 | 903.5 | 897.3 | 893.6 | 888.6 | 880.8 | 873.8 | 867.8 | 862.3 | 852.9
70000 kPa | 912.6 | 908.3 | 901.9 | 898.4 | 893.2 | 885.5 | 878.6 | 872.6 | 867 | 857.7
80000 kPa | 916.9 | 912.6 | 906.4 | 902.8 | 897.6 | 890 | 883 | 877 | 871.6 | 862.3
90000 kPa | 921.1 | 916.8 | 910.6 | 907 | 901.9 | 894.2 | 887.4 | 881.3 | 875.9 | 866.6
100000 kPa | 925.1 | 920.8 | 914.7 | 911.1 | 906 | 898.4 | 891.5 | 885.4 | 880 | 870.7
120000 kPa | 932.8 | 928.6 | 922.5 | 918.9 | 913.9 | 906.2 | 899.3 | 893.3 | 887.9 | 878.7
140000 kPa | 939.9 | 935.6 | 929.8 | 926 | 921.1 | 913.5 | 906.7 | 900.7 | 895.4 | 886.1

viscosity [mPa·s], 100 kPa
Settings | x2 = 0 | x2 = 0.1002 | x2 = 0.2327 | x2 = 0.3 | x2 = 0.3969 | x2 = 0.53 | x2 = 0.637 | x2 = 0.7975 | x2 = 0.9131
303.15 K | 0.779 | 0.783 | 0.818 | 0.857 | 0.919 | 1.049 | 1.203 | 1.559 | 1.916
313.15 K | 0.692 | 0.69 | 0.716 | 0.744 | 0.787 | – | – | – | –
